Results from patent publication US8288549B2, “Glycine B antagonist” (Merz Pharma GmbH & Co. KGaA, priority 2008, dated 2012).

Columns and labels:
[1] = target: T1, glycine binding pocket of the NMDA receptor (Rattus norvegicus, UniProt P35439); assay: [3H]-MDL-105,519 displacement studies on rat cortical membranes; conditions: displacement of 2 nM [3H]-MDL-105,519, rat cortical membranes, 4° C., 1 h; read-out: NMDA-MDL 105519-r-CTX - IC50
T1 construct: The cortex is dissected out and processed as described by Parsons, et al; from tissue; host or cells: rat cerebral cortex membranes (male Sprague-Dawley)
Method: [^3]MDL-105,519 Displacement Studies
For the evaluation of the binding affinity of the test compounds on the glycine binding pocket of the NMDA receptor, [^3H]-MDL-105,519 (GE Healthcare, Freiburg, Germany) displacement studies are performed using a 96-well plate robotic platform. MDL-105,519 (Baron et al., J Pharmacol Exp Ther 1996, 279(1), 62-68; Baron et al., European Journal of Pharmacology, 1997, 323(2-3), 181-192; Hoffner & Wanner, Neuroscience Letters, 1997, 226(2), 79-82) is a selective, high affinity antagonist at the NMDA receptor glycine site.
Tissue preparation is performed according to Foster & Wong (Br J Pharmacol, 1987, 91, 403-409) with some modifications. Anaesthetised male Sprague-Dawley rats (200-250 g, Janvier, Le Genest-Isle, France) are decapitated and their brains removed rapidly. The cortex is dissected out and processed as described by Parsons, et al. (J Pharmacol Exp Ther, 1997, 283(3), 1264-1275). For isolation of the cell membranes, the cortices are homogenized in 20 volumes of ice-cold 0.32 M sucrose (Sigma-Aldrich, Taufkirchen, Germany) using a glass-Teflon homogenizer. The homogenate is centrifuged at 1000×g for 10 minutes, the pellet is discarded and the supernatant centrifuged at 20,000×g for 20 minutes. The resulting pellet is re-suspended in 20 volumes of distilled water and centrifuged for 20 minutes at 8000×g. The supernatant and the buffy coat are then centrifuged three times (48,000×g for 20 minutes) in the presence of 50 mM Tris-HCl, pH 8.0 (assay buffer). All centrifugation steps are carried out at 4° C. After resuspension in 5 volumes of 50 mM Tris-HCl, pH 7.5, the membrane suspension is frozen rapidly at −80° C. On the day of assay, the membranes are thawed and washed four times by resuspension in 50 mM Tris-HCl, pH 7.5, and centrifugation at 48,000×g for 20 minutes. The final pellet is suspended in assay buffer. The amount of protein in the final membrane preparation is determined according to the method of Lowry, et al. (J. Biological Chemistry, 1951, 193, 256-275) with some modifications (Hartree, Analytical Biochemistry, 1972, 48, 422-427). The final protein concentration used for our studies is 400 μg/ml.
A robotic system designed for binding assays (Tecan Deutschland GmbH, Crailsheim, Germany) is loaded with the membrane solution, solutions for bound control (buffer/DMSO 20%), unlabeled glycine (1 mM) for evaluation of non-specific binding, all compounds to be tested (at 20-fold concentrations), radioligand and respective 96-well plates.
Before performing displacement studies, saturation experiments are performed to determine the equilibrium dissociation constant (Kd) of [^3H]-MDL-105,519, which is a parameter for the affinity of the radioligand to the binding site. The protein/receptor concentration is held constant whereas the amount of specific bound radioligand is determined using increasing concentrations of ligand.
On the basis of the saturation experiments, a final [^3H]-MDL-105,519 concentration of 2 nM is selected. Firstly, the assay plates are loaded with membrane solution and are shaken at 4° C. The mother plates are then prepared by pipetting the compounds (n=4) into assay buffer/20% DMSO to obtain the desired final concentrations. After transferring radioligand into the assay plates, the compounds are added (including the bound and the non-specific binding control). The final DMSO concentration is 1%. The assay plates are incubated and shaken at 4° C. for 1 h, before the mixture is exhausted as rapidly as possible via a vacuum manifold using the Multiscreen HTS glass fibre (type B) filter plates (Millipore, Schwalbach, Germany) under a constant vacuum of 450 mbar. The membranes are washed four times with cold assay buffer (100 μL). […]

[2] = target: T2, NMDA receptor glycine B site (Rattus norvegicus, UniProt P35439); assay: Whole cell patch-clamp recordings in cultured rat hippocampal neurons (NMDA/D-Serine evoked currents); assay type: cell-based; conditions: NMDA (200 μM) and D-Serine (1 μM), holding potential −70 mV, read-out: NMDA-PC-r-HIC-NAM - IC50
T2 construct: Hippocampi are then isolated from the brains of at least 8 embryos after decapitation; endogenous in cells; host or cells: primary cultured hippocampal neurons from E20 Sprague-Dawley rat embryos, 11-15 DIV
Method: Antagonistic potencies of the test compounds are functionally evaluated using electrophysiological whole cell patch-clamp recordings and/or fluorometric intracellular Ca^2+-imaging (FLIPR) screens.
Cell preparation is performed as described by Parsons, et al. (Neuropharmacology, 1998, 37(6), 719-727). The female Sprague-Dawley rat is anaesthetised by placing in a saturated CO2-euthanasia chamber under further quiet CO2-influx. Under these conditions the rat loses consciousness after a few seconds and is then sacrificed by cervical dislocation. After opening the abdominal cavity, embryos (E20) are removed and stored in ice cold Ca^2+- and Mg^2+-free Hank's Buffered Salt Solution (pH 7.3), containing 4 g/l glucose (HBSS-CMF). Hippocampi are then isolated from the brains of at least 8 embryos after decapitation, transferred into ice cold HBSS-CMF and washed 3 to 4 times.
Hippocampi are pre-incubated for 8 min with a 0.66% trypsin (Sigma-Aldrich) and 0.1% (20 U/ml) DNAase solution (Sigma-Aldrich) in Ca^2+-free Phosphate Buffered Saline (PBS-CF) and washed 3 times with HBSS-CMF. Cells are then mechanically dissociated by trituration in a PBS-CF solution containing 0.05% (10 U/ml) DNAase and 0.3% of the trypsin inhibitor ovomucoid (all from Sigma-Aldrich). The cells are then centrifuged at 180×g for 10 minutes, and the cell pellet re-suspended in basal Minimum essential medium (MEM, Invitrogen, Karlsruhe, Germany), again carefully triturated to ensure maximal dissociation and finally plated in the flexiPERM inserts (Thermo Fisher Scientific, Langenselbold, Germany) at a density of 15×10^3 cells/cm^2 (0.5 ml/insert) onto poly-DL-ornithine (Sigma) and mouse laminin (Invitrogen) pre-coated plastic petri dishes. After 1 hour the cells become attached to the bottom of the dish and the inserts may be removed. The cells are then nourished with 2 ml MEM supplemented with 5% foetal calf serum (FCS) and 5% horse serum and incubated at 37° C. with 95% air and 5% CO2 at 95% humidity. After 4 days in vitro (DIV) further glial mitosis is inhibited by adding 10 μl of AraC (5 μM endconcentration). The medium is completely exchanged after an additional 2 DIV and again, but only partly (50%), after 8 DIV. The cells are used for electrophysiological recordings after 11-15 DIV.
Cells are visualised using an inverted microscope and selected for patching based upon their position and morphology. Voltage clamp recordings are made in the whole cell configuration of the patch clamp technique at a holding potential of −70 mV with the aid of an EPC-10 amplifier in combination with pipette manipulator. Patch clamp pipettes are pulled from borosilicate glass using a horizontal puller (P-97 Puller, Sutter Instruments, USA) and, when filled with intracellular solution, have resistances of 1-4 MΩ.
Solutions are delivered via a home-made gravity driven very fast perfusion system (<10 ms) including valves to switch flow on and off in combination with a stepper motor-driven double-barreled theta glass application pipette in order to expose cells to either agonist-free or agonist-containing solutions in presence or absence of antagonist.
The intracellular solution used consists of: 120 mM CsCl, 10 mM EGTA, 1 mM MgCl2, 200 μM CaCl2, 10 mM glucose and 22 mM tetraethyl ammonium chloride (TEA-CL). The corresponding extracellular bath solution contains: 140 mM NaCl, 3 mM KCl, 10 mM glucose, 10 mM HEPES, 1.5 mM CaCl2 and 4.5 mM sucrose (all from Sigma-Aldrich) pH 7.3, and is supplemented with 0.3 μM tetrodotoxin (TTX, Tocris, Bristol, U.K.) to block voltage-activated sodium channels and 0.25 μM bicuculline (Sigma-Aldrich) to block GABAA receptors. […]

SMILES	IC50 [1]	melting point	IC50 [2]
O=C(O)c1cc2cc(Br)cc(Br)c2nc1NC(Cc1ccccc1)C(=O)O (centres unmarked) [Example 56, 6,8-Dibromo-2-(1-carboxy-2-phenyl-ethylamino)-quinoline-3-carboxylic acid]	1730 nM	115 to 117 °C	1240 nM
Cc1cc(Cl)cc2cc(C(=O)O)c(NC(Cc3c[nH]c4ccccc34)C(=O)O)nc12 (centres unmarked) [Example 97, 2-[1-Carboxy-2-(1H-indol-3-yl)-ethylamino]-6-chloro-8-methylquinoline-3-carboxylic acid]	2490 nM	> 160 °C (dec.)	–
O=C(O)c1cc2cc(Cl)ccc2nc1N[C@@H](Cc1ccncc1)C(=O)O [Example 55, 2-((S)-1-Carboxy-2-pyridin-4-yl-ethylamino)-6-chloro-quinoline-3-carboxylic acid]	4390 nM	155 to 158 °C (dec.)	–
Cc1cc(Cl)cc2cc(C(=O)O)c(NC(Cc3ccccc3)C(=O)O)nc12 (centres unmarked) [Example 95, 2-(1-Carboxy-2-phenyl-ethylamino)-6-chloro-8-methylquinoline-3-carboxylic acid]	2290 nM	> 145 °C (dec.)	–
O=C(O)c1cc2cc(Cl)ccc2nc1N[C@@H](Cc1ccc(O)c([N+](=O)[O-])c1)C(=O)O [Example 41, 2-[(S)-1-Carboxy-2-(4-hydroxy-3-nitro-phenyl)-ethylamino]-6-chloro-quinoline-3-carboxylic acid]	1870 nM	–	1030 nM
O=C(O)c1cc2cc(Cl)ccc2nc1N[C@@H](Cc1ccccc1)C(=O)O [Example 1, 2-((S)-1-Carboxy-2-phenyl-ethylamino)-6-chloro-quinoline-3-carboxylic acid]	410 nM	153 to 159 °C	–
O=C(O)c1cc2cc(Cl)ccc2nc1N[C@@H](Cc1cccs1)C(=O)O [Example 156, 2-((S)-1-Carboxy-2-thiophen-2-yl-ethylamino)-6-chloro-quinoline-3-carboxylic acid]	1910 nM	> 250 °C (dec.)	–
O=C(O)c1cc2cc(Cl)ccc2nc1NC(Cc1c[nH]c2ccc(F)cc12)C(=O)O (centres unmarked) [Example 25, 2-[1-Carboxy-2-(5-fluoro-1H-indol-3-yl)-ethylamino]-6-chloro-quinoline-3-carboxylic acid]	2120 nM	–	930 nM
CC(c1ccccc1)C(Nc1nc2ccc(Cl)cc2cc1C(=O)O)C(=O)O (stereo not drawn) [Example 31, erythro-2-(1-Carboxy-2-phenyl-propylamino)-6-chloro-quinoline-3-carboxylic acid]	3370 nM	–	–
O=C(O)c1cc2cc(Cl)ccc2nc1NC(Cc1ccc(Nc2ccnc3ccccc23)cc1)C(=O)O (centres unmarked) [Example 104, 2-{1-Carboxy-2-[4-(quinolin-4-ylamino)-phenyl]-ethylamino}-6-chloro-quinoline-3-carboxylic acid]	700 nM	> 200 °C (dec.)	–
